Here are results for 13 compounds from article PMC10143232, “Dihydropyrimidone Derivatives as Thymidine Phosphorylase Inhibitors: Inhibition Kinetics, Cytotoxicity, and Molecular Docking” (Molecules, 2023).

SMILES strings stand for the structures. “Also recorded” adds a separate entry of the source.

Data set [1] deals with T1, Thymidine phosphorylase (TP) (Escherichia coli, UniProt P07650).
T1 construct: purchased Sigma Aldrich, USA
As to the kind of experiment: Thymidine phosphorylase inhibition assay (spectrophotometric, 290 nm). It is filed as biochemical, E. coli. Particulars: for inhibition at 500 µM: pH 7, E. coli TP, test compound 10 µL of 0.5 mM in 200 µL, thymidine substrate, 30 °C, pH 7.0, read-out: Thymidine Phosphorylase Inhibitory Activity % Inhibition; for IC50: E. coli TP, n = 3, NA: not active, read-out: Thymidine Phosphorylase Inhibitory Activity IC50 ± SEM. As for the experimental part: Thymidine phosphorylase (source: E. coli, EC Number 2.4.2.4), thymidine (substrate), and potassium phosphate monobasic (as buffer) were acquired from Sigma Aldrich, USA. […] Dimethylsulfoxide (DMSO), used as a solvent, was obtained from Fisher Scientific, Schwerte, Germany.
Reaction was performed in 96-well plates and in triplicates. The 200 µL reaction mixture was comprised of 10 µL of the test compound (0.5 mM; dissolved in DMSO), 150 µL of potassium phosphate buffer (pH 7.0, 50 mM), and 20 µL of TP enzyme (0.058 unit/well). The 96-well plate containing all these reagents was then incubated at 30 °C for 10 min.
SoftMax Pro 4.8 software (Molecular Devices, San Jose, CA, USA) was used to analyse the results.
(§1) EZ-FIT, enzyme kinetics software (Perrella Scientific, Inc., Amherst, GA, USA) was used to calculate the IC50 values. In order to analyse the kinetic parameter, Grafit version 7.0 (Erithacus Software Ltd., Horley, UK) was used.

The target of data set [2] is T1, Thymidine phosphorylase (TP). As to the kind of experiment: Mechanistic (kinetic) studies of TP inhibition. It is filed as biochemical. Particulars: E. coli TP; for Type of Inhibition: Lineweaver–Burk, Dixon plots; for Ki: inhibitor 200–500 µM, thymidine 0.1875–1.5 mM, read-out: Ki ± SEM.
Excerpt: Kinetic studies are used for the investigation of chemical reactions in terms of their reaction rates, reaction mechanisms, and the factors that affect these parameters. Herein, it is used determine the type/mechanism of inhibition of dihydropyrimidone derivatives.
as §1

Data set [3] relates to 3T3 (mouse fibroblast) cell line. As to the kind of experiment: MTT cytotoxicity assay. It is filed as cell-based. As for the experimental part:
(§2) Cytotoxicity of active compounds were evaluated employing a standard MTT calorimetric assay. Mouse fibroblast (3T3 cell line) acquired from American Type Culture Collection (ATCC), Virginia, USA, was cultured in DMEM (Dulbecco’s modified eagle medium). In total, 5% FBS (fetal bovine serum), penicillin (100 IU/mL), and streptomycin ([…]) were then added to the medium in […] flasks, and kept in a CO2 incubator at 37 °C. The harvested cell was then diluted with a specific medium. Haemocytometer was used for the quantification of cells. After that, the culture of cell having concentration of 5x104 (cells/mL) was prepared, inoculated into 96-well plates (100 µL/well), and then incubated overnight. After incubation, the old medium was removed, and fresh medium (200 µL) was added. Then different concentrations of test compounds (ranging from 1 to 30 µM) were added. After incubation of 48 h, each well received 200 µL of MTT dye (0.5 mg/mL), and further incubated for a duration of 4 h. After 4 h, 100 µL of DMSO was introduced into each well of the 96-well plate. The reduction of MTT to formazan was measured by recording absorbance at 540 nm with the help of a microplate reader (SpectraMax 384, Molecular Devices, San Jose, CA, USA).

Another data set in a line: MTT cytotoxicity assay. It is filed as cell-based. Particulars: 3T3 mouse fibroblast cells, 48 h, test compounds 1 to 30 µM, NC: non-cytotoxic, read-out: Cytotoxicity Studies Cell Viability (%). As for the experimental part:
as §2

For a further data set, the system named is E. coli TP. Also on record: method as in earlier work. Particulars: read-out: 50% inhibitory concentration (IC50); purified E. coli TP; conversion of dThd to Thy; ref [5]; cited from earlier work.

T1 sequence (P07650 whole entry): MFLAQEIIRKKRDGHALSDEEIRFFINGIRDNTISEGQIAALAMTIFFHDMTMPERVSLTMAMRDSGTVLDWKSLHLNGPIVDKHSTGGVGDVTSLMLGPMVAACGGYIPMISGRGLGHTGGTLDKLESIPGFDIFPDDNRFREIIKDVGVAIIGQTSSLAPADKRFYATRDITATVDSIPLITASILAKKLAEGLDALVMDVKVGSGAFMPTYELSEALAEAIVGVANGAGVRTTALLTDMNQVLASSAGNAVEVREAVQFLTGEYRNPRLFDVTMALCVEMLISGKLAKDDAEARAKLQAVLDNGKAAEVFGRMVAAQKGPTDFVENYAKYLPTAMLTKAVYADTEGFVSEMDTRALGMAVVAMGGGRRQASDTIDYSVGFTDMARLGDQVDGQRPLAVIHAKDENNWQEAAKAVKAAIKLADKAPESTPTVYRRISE

In the case of `O=c1[nH]c(=O)c2cc[nH]c2[nH]1` [7-Deazaxanthine, reference compound], the inhibition at 500 µM in data set [1] came to 82%. Also, the “Type of Inhibition” value in data set [2] is “Non-Competitive”.

For `COC(=O)C1=C(C)NC(=O)NC1c1ccccc1` (stereo not drawn) [Compound 1, Methyl 6-methyl-2-oxo-4-phenyl-1,2,3,4-tetrahydropyrimidine-5-carboxylate], in data set [1], the IC50 is 314.3 ± 0.9 µM and the inhibition at 500 µM came to 84%. In addition, the “Cytotoxicity against 3T3 cells (in words)” value (“Cytotoxicity” for short) in data set [3] is recorded as “non-cytotoxic; also recorded: non-toxic”. Besides, the viability at 48 h in the data set “MTT cytotoxicity assay” is 57%. Moreover, in data set [2], the “Type of Inhibition” value is “Non-Competitive” and the Ki stood at 326.3 ± 0.002 µM.

Regarding `COC(=O)C1=C(C)NC(=O)NC1c1ccc([N+](=O)[O-])cc1` (stereo not drawn) [Compound 12, Methyl 6-methyl-4-(4-nitrophenyl)-2-oxo-1,2,3,4-tetrahydropyrimidine-5-carboxylate], in data set [1], the IC50 turned out to be 303.5 ± 0.4 µM and the inhibition at 500 µM was 91.5%. Also, the “Cytotoxicity” value in data set [3] is recorded as “non-cytotoxic; also recorded: non-toxic”. In addition, the viability at 48 h in “MTT cytotoxicity assay” is 57%. In data set [2], the “Type of Inhibition” value is recorded as “Non-Competitive” and the Ki came out at 297.6 ± 0.006 µM.

Regarding `COC(=O)C1=C(C)NC(=O)NC1c1ccsc1` (stereo not drawn) [Compound 24, Methyl 6-methyl-2-oxo-4-(thiophen-3-yl)-1,2,3,4-tetrahydropyrimidine-5-carboxylate], in data set [1], the IC50 came out at 350.6 ± 0.6 µM and the inhibition at 500 µM is 79.6%. Besides, the viability at 48 h in the data set “MTT cytotoxicity assay” was 82%.

With `COC(=O)C1=C(C)NC(=O)NC1c1ccc(OC)c(OC)c1` (stereo not drawn) [Compound 25, Methyl 4-(3,4-dimethoxyphenyl)-6-methyl-2-oxo-1,2,3,4-tetrahydropyrimidine-5-carboxylate], in data set [1], the IC50 came to 424.1 ± 0.9 µM and the inhibition at 500 µM was 59%. Further, the viability at 48 h in the data set “MTT cytotoxicity assay” is 99%.

As for `COC(=O)C1=C(C)NC(=O)NC1c1ccc(N(C)C)cc1` (stereo not drawn) [Compound 26, Methyl 4-(4-(dimethylamino)phenyl)-6-methyl-2-oxo-1,2,3,4-tetrahydropyrimidine-5-carboxylate], in data set [1], the IC50 was found to be 350 ± 3.7 µM and the inhibition at 500 µM was determined as 92.3%. For the same compound, the viability at 48 h in the data set “MTT cytotoxicity assay” came to 57%.

Consider `COC(=O)C1=C(C)NC(=O)NC1c1ccc(O)c(Cl)c1` (stereo not drawn) [Compound 28, Methyl 4-(3-chloro-4-hydroxyphenyl)-6-methyl-2-oxo-1,2,3,4-tetrahydropyrimidine-5-carboxylate], for which, in data set [1], the IC50 was 404.6 ± 1 µM and the inhibition at 500 µM was determined as 67.5%. Also, the viability at 48 h in “MTT cytotoxicity assay” amounted to 95%.

Turning to `COC(=O)C1=C(C)NC(=O)NC1c1ccc(OC(C)=O)c(OC)c1` (stereo not drawn) [Compound 29, Methyl 4-(4-acetoxy-3-methoxyphenyl)-6-methyl-2-oxo-1,2,3,4-tetrahydropyrimidine-5-carboxylate], in data set [1], the IC50 was determined as 400.5 ± 0.6 µM and the inhibition at 500 µM came out at 76%. Moreover, the viability at 48 h in the data set “MTT cytotoxicity assay” was 80%.

Turning to `COC(=O)C1=C(C)NC(=O)NC1c1cc(OC)c(O)c(OC)c1` (stereo not drawn) [Compound 30, Methyl 4-(4-hydroxy-3,5-dimethoxyphenyl)-6-methyl-2-oxo-1,2,3,4-tetrahydropyrimidine-5-carboxylate], in data set [1], the IC50 came to 396.7 ± 1.5 µM and the inhibition at 500 µM turned out to be 69.6%. Further, the viability at 48 h in “MTT cytotoxicity assay” was determined as 75%.

Regarding `COC(=O)C1=C(C)NC(=O)NC1c1ccc(C)s1` (stereo not drawn) [Compound 32, Methyl 6-methyl-4-(5-methylthiophen-2-yl)-2-oxo-1,2,3,4-tetrahydropyrimidine-5-carboxylate], in data set [1], the IC50 worked out at 485.7 ± 1.5 µM and the inhibition at 500 µM turned out to be 58.3%. Further, in the data set “MTT cytotoxicity assay”, the viability at 48 h came to 85%.

In the case of `COC(=O)C1=C(C)NC(=O)NC1c1ccc(C(F)(F)F)cc1` (stereo not drawn) [Compound 33, Methyl 6-methyl-2-oxo-4-(4-(trifluoromethyl)phenyl)-1,2,3,4-tetrahydropyrimidine-5-carboxylate], in data set [1], the IC50 stood at 322.6 ± 1.6 µM and the inhibition at 500 µM amounted to 73.6%. The “Cytotoxicity” value in data set [3] is reported as “non-cytotoxic; also recorded: non-toxic”. For the same compound, the viability at 48 h in “MTT cytotoxicity assay” was found to be 61%. In data set [2], the “Type of Inhibition” value is recorded as “Non-Competitive” and the inhibition constant (Ki) was found to be 311.4 ± 0.004 µM.

Consider `COC(=O)C1=C(C)NC(=O)NC1c1ccc(Cl)cc1` (stereo not drawn) [Compound 34, Methyl 4-(4-chlorophenyl)-6-methyl-2-oxo-1,2,3,4-tetrahydropyrimidine-5-carboxylate], for which, in data set [1], the IC50 was determined as 443.9 ± 0.9 µM and the inhibition at 500 µM is 66.3%. Moreover, in the data set “MTT cytotoxicity assay”, the viability at 48 h amounted to 72%.

In the case of `Oc1ncnc2c1ncn2[C@@H]1O[C@H](COC(c2ccccc2)(c2ccccc2)c2ccccc2)[C@@H](O)[C@H]1O` [KIN59, 5′-O-tritylinosine], in the data set with E. coli TP, the IC50 is 44 ± 3 µM.
